Each block holds one molecule with its values, some of them ahead of it.
Legend:
[1] = test system: liver poisoning with carbon tetrachloride; test: Anti-hepatotoxic activity of silybin and of 1:1 silybin-phosphatidylcholine complex in the rat, after poisoning with carbon tetrachloride; format: in vivo; conditions: oral; for reduction in GOT and GPT (in words): carbon tetrachloride, equimolecular doses; for GOT: poisoned controls 339.40 ± 59.07; for GOT, % change (in brackets) / GPT, % change (in brackets): versus poisoned controls
[2] = conclusion from literature reports; cited from earlier work
[3] = Solubility in chloroform, ethyl ether or benzene
[4] = Pharmacokinetic comparison between equimolar doses of silybin and of 1:1 silybin:phosphatidylcholine complex in man, oral administration; conditions: 0.00 = below sensitivity of the method (35 ng/ml)
[5] = Pharmacokinetic comparison between equimolar doses of silybin and of 1:1 silybin-phosphatidylcholine complex in the rat, after oral administration
[6] = in vivo, po
Source text: phosphatidylcholine complex in the rat, after oral administration.

[7] = silybin 25 mg/kg, complex 65.8 mg/kg (equivalent to 25 mg silybin), poisoned controls 145.40 ± 31.43
[8] = silybin 25 mg/kg, complex 65.8 mg/kg (equivalent to 25 mg silybin)
[9] = silybin 25 mg/kg, complex 65.8 mg/kg
[10] = silybin 250 mg/kg (P < .05), complex 658 mg/kg (equivalent to 250 mg silybin; P < .01)
[11] = silybin 250 mg/kg, complex 658 mg/kg (equivalent to 250 mg silybin), poisoned controls 145.40 ± 31.43, °° P < .01
[12] = silybin 250 mg/kg, complex 658 mg/kg

Molecule: COc1cc(C2Oc3cc([C@H]4Oc5cc(O)cc(O)c5C(=O)[C@@H]4O)ccc3OC2CO)ccc1O (stereo partly drawn) [Silybin, silybin]
reduction in GOT and GPT (in words) [1]: only a slight reduction | GPT [1, 7]: 94.30 U/L | GOT [1, 8]: 252.60 U/L | GOT, % change (in brackets) [1, 9]: -25.6% | GPT, % change (in brackets) [1, 9]: -35.2% | GOT [1, 10]: 200.00 U/L | GPT [1, 11]: 94.90 U/L | GOT, % change (in brackets) [1, 12]: -41.1% | GPT, % change (in brackets) [1, 12]: -34.8% | oral bioavailability (in words) [2]: does not have really high or adequate bioavailability | solubility in chloroform, ethyl ether or benzene [3]: insoluble | concentration at sampling time 0.25 h ([4]; complex 700, silybin 270, 0.25 h): 0.00 ng/mL | concentration at sampling time 0.50 h ([4]; complex 700, silybin 270, 0.50 h): 0.00 ng/mL | concentration at sampling time 1.00 h ([4]; complex 700, silybin 270, 1.00 h): 0.00 ng/mL | concentration at sampling time 2.00 h ([4]; complex 700, silybin 270, 2.00 h): 0.00 ng/mL | concentration at sampling time 3.00 h ([4]; complex 700, silybin 270, 3.00 h): 0.00 ng/mL | concentration at sampling time 4.00 h ([4]; complex 700, silybin 270, 4.00 h): 0.00 ng/mL | concentration at sampling time 6.00 h ([4]; complex 700, silybin 270, 6.00 h): 0.00 ng/mL | concentration at sampling time 8.00 h ([4]; complex 700, silybin 270, 8.00 h): 0.00 ng/mL | concentration at 0.25 h ([5]; in vivo, po, 200 mg/kg): 70 ng/mL | concentration at 0.5 h ([5]; in vivo, po, 200 mg/kg): 60 ng/mL | concentration at 1 h ([5]; in vivo, po, 200 mg/kg): 110 ng/mL | concentration at 2 h ([5]; in vivo, po, 200 mg/kg): 50 ng/mL | concentration at 3 h ([5]; in vivo, po, 200 mg/kg): 50 ng/mL | concentration at sampling time 4.00 h ([5]; oral, complex 520 mg/kg (equivalent to 200 mg/kg silybin), silybin 200 mg/kg, 4.00 h, 0.00 = nondeterminable, below limit of 0.05 mcg/ml): 0 ng/mL | concentration at sampling time 6.00 h ([5]; oral, complex 520 mg/kg (equivalent to 200 mg/kg silybin), silybin 200 mg/kg, 6.00 h, 0.00 = nondeterminable, below limit of 0.05 mcg/ml): 0 ng/mL

absorption in the rat (in words) [6]: markedly in favour of the complexed form
Molecule: 1:1 Silybin/soy phosphatidylcholine complex [1:1 silybin-phosphatidylcholine complex]
reduction in GOT and GPT (in words) [1]: significant reduction | GPT [1, 7]: 65.90 U/L | GOT [1, 8]: 181.80 U/L | GOT, % change (in brackets) [1, 9]: -46.4% | GPT, % change (in brackets) [1, 9]: -54.7% | GOT [1, 10]: 148.10 U/L | GPT [1, 11]: 46.90 U/L | GOT, % change (in brackets) [1, 12]: -56.4% | GPT, % change (in brackets) [1, 12]: -67.8%

Reference: US4764508A, “Complexes of flavanolignans with phospholipids, preparation thereof and associated pharmaceutical compositions” (Inverni Della Beffa S.p.A., priority 1985, dated 1988)
